From patent US20090054453A1, “Novel Tetralins as 5-HT6 Modulators” (priority 2006, published 2009) come the findings set out here.

Molecules are shown by their SMILES.

This assay deals with T1, rat striatal 5-HT6 receptors (Rattus norvegicus, UniProt P31388).
T1 construct: Striatal tissue from adult rats (Sprague-Dawley, 320-370 g, B & K Sweden) were dissected out, weighed and homogenized; from tissue; host or cells: rat striatum (Sprague-Dawley) membranes
Briefly: [125I]SB258585 binding to rat striatal 5-HT6 receptors. The following applies: competition with [125I]SB258585, rat striatal membranes. The protocol: Method for [125I]SB258585 binding to rat striatal 5-HT6 receptors
[^125I]SB258585 (1) with specific radioactivity 2000 Ci/mmol was purchased from Amersham Biosciences Europe GmbH, Freiburg, Germany. Other chemicals were purchased from commercial sources and were of analytical grade.
Striatal tissue from adult rats (Sprague-Dawley, 320-370 g, B & K Sweden) were dissected out, weighed and homogenized in buffer containing 50 mM Tris-HCl, 4 mM MgCl2, 1 mM EDTA, 10 μM pargyline and protease inhibitor (Complete, Roche Diagnostics) pH 7.4 using an Ultra-Turrax T8 (IKA Labortechnik, Germany). The tissue homogenate was centrifuged at 48 000×g for 10 min and the pellet was resuspended and recentrifuged as above. […]
Saturation binding studies were carried out in duplicate with 1-3 mg w.w. per tube in 0.5 ml buffer (50 mM Tris, 4 mM MgCl2, 100 mM NaCl, 1 mM EDTA, 5 mM ascorbate and 10 μM pargyline at pH 7.4), 0.2 nM [^125I]SB258585 and unlabelled SB258585 to give a final concentration range of 0.23-20 nM (12 conc.). Non-specific binding was determined in the presence of 10 μM methiothepin. […] The radioactivity was determined in a Packard Tri-Carb 2900TR liquid scintillation counter. Data were analyzed by non-linear regression analyses using PRISM 4.00 (GraphPad Software Inc., San Diego, Calif.). […]

T1 sequence (P31388 whole entry): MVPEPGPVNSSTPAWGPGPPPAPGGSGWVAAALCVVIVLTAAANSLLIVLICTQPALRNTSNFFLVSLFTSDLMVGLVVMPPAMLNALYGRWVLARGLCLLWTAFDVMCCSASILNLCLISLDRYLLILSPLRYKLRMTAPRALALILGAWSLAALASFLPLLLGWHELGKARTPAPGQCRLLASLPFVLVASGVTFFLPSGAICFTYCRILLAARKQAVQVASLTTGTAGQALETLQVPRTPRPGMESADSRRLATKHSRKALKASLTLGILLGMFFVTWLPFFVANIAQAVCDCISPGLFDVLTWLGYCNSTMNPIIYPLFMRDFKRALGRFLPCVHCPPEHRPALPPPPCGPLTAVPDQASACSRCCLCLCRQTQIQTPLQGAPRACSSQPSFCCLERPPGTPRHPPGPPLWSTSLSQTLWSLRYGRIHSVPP

`CN1CCN(c2cccc3c2C[C@H](NS(=O)(=O)c2ccc4ccccc4c2)CC3)CC1` [Example 12, N-[(2R)-8-(4-Methylpiperazin-1-yl)-1,2,3,4-tetrahydronaphthalen-2-yl]naphthalene-2-sulfonamide]: the Ki (commonly the equilibrium dissociation constant of an inhibitor or competing ligand from its target) was 0.8 nM. That is a sub-nanomolar value.
